Our source for the IC50 values is patent US8901118B2, “Compounds and methods for kinase modulation, and indications therefor” (Plexxikon Inc., priority 2010, dated 2014).

Bounds are passed on as bounds.

One experiment has as its target T1, BCR-NTRK2 BaF3 cells (Homo sapiens, UniProt Q16620).
T1 construct: fused on or other part: P11274 (Breakpoint cluster region protein)
Description: BaF3 BCR-NTRK2 cell proliferation assay (ATPlite). The format is cell-based. The conditions noted are these: read-out: Inhibition of Cell Proliferation IC50, BCR/BaF3 TrkB. The essentials: (§1)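 Proliferation was run for 3 days at 37 °C against 8-point 1:3 titrations with 10 μM as the top final concentration. Seeding was 10,000 cells/well for BaF3 BCR-fusion lines, grown without IL-3, and 25,000 cells/well for MV-4-11. IC50 was derived from ATPlite luminescence read as cell number.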

Another experiment deals with c-Kit kinase (Homo sapiens, UniProt P10721). Description: c-Kit kinase biochemical activity assay (AlphaScreen, biotin-(E4Y)10 phosphorylation). Conditions: 100 μM ATP; read-out: Biochemical Inhibition IC50 Kit. The essentials:
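AlphaScreen read-out (streptavidin donor, anti-phosphotyrosine PY20 acceptor beads, EDTA stop) of c-Kit activity. Reaction: 0.75 ng kinase, 100 µM ATP, 30 nM biotin-(E4Y)10, 25 mM HEPES pH 7.5, 2 mM MgCl2, 2 mM MnCl2, 5% DMSO, 1 h room temperature. IC50 derived over an 8-point, two-fold dilution series.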
(In Alpha technology, singlet oxygen from a donor bead excites a nearby acceptor bead.)

For another experiment, the target named is T2, BCR-FMS BaF3 cells (Homo sapiens, UniProt P07333).
T2 construct: fused on or other part: P11274 (Breakpoint cluster region protein)
T2 sequence (P07333 582-910): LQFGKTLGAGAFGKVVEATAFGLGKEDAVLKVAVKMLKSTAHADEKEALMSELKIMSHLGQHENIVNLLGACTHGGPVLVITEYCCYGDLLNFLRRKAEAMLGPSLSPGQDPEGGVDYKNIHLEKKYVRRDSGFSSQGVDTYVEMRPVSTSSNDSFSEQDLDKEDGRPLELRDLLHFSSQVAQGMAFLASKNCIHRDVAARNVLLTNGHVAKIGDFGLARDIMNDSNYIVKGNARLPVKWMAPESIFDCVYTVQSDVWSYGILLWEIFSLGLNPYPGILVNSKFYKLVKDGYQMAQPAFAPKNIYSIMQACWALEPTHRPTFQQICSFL
The experiment can be described thus: BaF3 BCR-FMS cell proliferation assay (ATPlite). The format is cell-based. Conditions: read-out: Inhibition of Cell Proliferation IC50, BCR/BaF3 Fms. The gist of the method:
as §1
In general terms: ATP-based viability assays read luminescence as a measure of living cells.

c-Kit kinase, sequence (P10721 26-976): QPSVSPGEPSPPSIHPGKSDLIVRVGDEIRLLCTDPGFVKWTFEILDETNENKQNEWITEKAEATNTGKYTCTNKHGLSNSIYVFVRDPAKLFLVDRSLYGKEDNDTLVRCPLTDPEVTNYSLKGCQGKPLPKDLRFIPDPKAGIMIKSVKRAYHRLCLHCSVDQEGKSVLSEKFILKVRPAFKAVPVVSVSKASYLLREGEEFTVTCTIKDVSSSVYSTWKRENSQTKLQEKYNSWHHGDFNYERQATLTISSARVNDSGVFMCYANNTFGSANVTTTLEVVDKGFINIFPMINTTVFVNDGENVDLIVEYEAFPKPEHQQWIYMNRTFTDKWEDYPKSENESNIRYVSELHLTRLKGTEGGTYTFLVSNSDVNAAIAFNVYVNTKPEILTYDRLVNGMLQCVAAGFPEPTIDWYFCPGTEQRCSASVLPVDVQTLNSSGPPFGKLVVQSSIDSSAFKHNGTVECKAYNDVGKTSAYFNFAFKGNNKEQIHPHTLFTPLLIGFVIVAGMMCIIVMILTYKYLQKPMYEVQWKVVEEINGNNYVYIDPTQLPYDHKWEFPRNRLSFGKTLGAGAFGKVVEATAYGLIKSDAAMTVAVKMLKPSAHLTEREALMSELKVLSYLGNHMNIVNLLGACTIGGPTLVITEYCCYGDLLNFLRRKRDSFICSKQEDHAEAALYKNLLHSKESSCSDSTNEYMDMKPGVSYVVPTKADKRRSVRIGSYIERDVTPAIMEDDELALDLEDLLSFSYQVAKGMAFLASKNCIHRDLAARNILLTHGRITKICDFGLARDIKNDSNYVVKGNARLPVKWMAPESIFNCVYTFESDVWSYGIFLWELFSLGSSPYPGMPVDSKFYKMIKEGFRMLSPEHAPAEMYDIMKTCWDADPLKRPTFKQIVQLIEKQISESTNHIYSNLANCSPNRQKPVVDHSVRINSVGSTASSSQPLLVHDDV
T1 sequence (Q16620 538-807): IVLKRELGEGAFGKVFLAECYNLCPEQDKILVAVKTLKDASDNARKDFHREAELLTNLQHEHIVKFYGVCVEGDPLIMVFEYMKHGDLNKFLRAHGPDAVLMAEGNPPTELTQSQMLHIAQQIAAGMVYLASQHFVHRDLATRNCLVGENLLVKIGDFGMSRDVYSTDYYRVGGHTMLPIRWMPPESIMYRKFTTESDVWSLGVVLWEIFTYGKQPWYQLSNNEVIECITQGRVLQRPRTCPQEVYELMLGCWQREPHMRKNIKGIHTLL

In the case of `CCOc1ccc(Nc2ncc(Cc3c[nH]c4ncc(C)cc34)cn2)cc1` [Compound P-3026, (4-Ethoxy-phenyl)-[5-(5-methyl-1H-pyrrolo[2,3-b]pyridin-3-ylmethyl)-pyrimidin-2-yl]-amine], the IC50 at BCR-NTRK2 BaF3 cells is less than 100 nM; on c-Kit kinase it was less than 10 nM; on BCR-FMS BaF3 cells, less than 10 nM.
On to `CCOc1ccc(Nc2ncc(Cc3c[nH]c4ncc(C)cc34)cn2)cn1` [Compound P-3027, (6-Ethoxy-pyridin-3-yl)-[5-(5-methyl-1H-pyrrolo[2,3-b]pyridin-3-ylmethyl)-pyrimidin-2-yl]-amine], for which the IC50 is less than 1000 nM at BCR-NTRK2 BaF3 cells, less than 10 nM at c-Kit kinase and less than 10 nM at BCR-FMS BaF3 cells.
As for `Cc1cnc2[nH]cc(Cc3cnc(Nc4cc(-c5ccc(F)cc5)n[nH]4)nc3)c2c1` [Compound P-3028, [5-(4-Fluoro-phenyl)-2H-pyrazol-3-yl]-[5-(5-methyl-1H-pyrrolo[2,3-b]pyridin-3-ylmethyl)-pyrimidin-2-yl]-amine], the IC50 on BCR-NTRK2 BaF3 cells, at c-Kit kinase and at BCR-FMS BaF3 cells was less than 1000 nM each time.
Consider `Cc1cnc2[nH]cc(Cc3cnc(Nc4cc(C(C)(C)C)n[nH]4)nc3)c2c1` [Compound P-3029, (5-tert-Butyl-2H-pyrazol-3-yl)-[5-(5-methyl-1H-pyrrolo[2,3-b]pyridin-3-ylmethyl)-pyrimidin-2-yl]-amine], for which the IC50 at BCR-NTRK2 BaF3 cells is more than 1000 nM; at c-Kit kinase, less than 1000 nM; on BCR-FMS BaF3 cells, less than 100 nM.
Turning to `Cc1cnc2[nH]cc(Cc3cnc(Nc4ccc(C(C)(C)C)cc4)nc3)c2c1` [Compound P-3030, (4-tert-Butyl-phenyl)-[5-(5-methyl-1H-pyrrolo[2,3-b]pyridin-3-ylmethyl)-pyrimidin-2-yl]-amine amine], the results for the IC50 on BCR-NTRK2 BaF3 cells, at c-Kit kinase and on BCR-FMS BaF3 cells were less than 10 nM, less than 100 nM and less than 10 nM, respectively.
`Cc1cnc2[nH]cc(Cc3cnc(Nc4ccc(C(O)(C(F)(F)F)C(F)(F)F)cc4)nc3)c2c1` [Compound P-3031, 1,1,1,3,3,3-Hexafluoro-2-{4-[5-(5-methyl-1H-pyrrolo[2,3-b]pyridin-3-ylmethyl)-pyrimidin-2-ylamino]-phenyl}-propan-2-ol]: the results for the IC50 on BCR-NTRK2 BaF3 cells, at c-Kit kinase and on BCR-FMS BaF3 cells were less than 10 nM, less than 100 nM and less than 10 nM, respectively.
As to `Cc1cnc2[nH]cc(Cc3cnc(Nc4cc(C5CC5)n[nH]4)nc3)c2c1` [Compound P-3032, (5-Cyclopropyl-2H-pyrazol-3-yl)-[5-(5-methyl-1H-pyrrolo[2,3-b]pyridin-3-ylmethyl)-pyrimidin-2-yl]-amine], the IC50 at BCR-NTRK2 BaF3 cells was more than 1000 nM; at c-Kit kinase, less than 1000 nM; at BCR-FMS BaF3 cells it was less than 1000 nM.
On to `CSc1ccc(Nc2ncc(Cc3c[nH]c4ncc(C)cc34)cn2)cc1` [Compound P-3033, [5-(5-Methyl-1H-pyrrolo[2,3-b]pyridin-3-ylmethyl)-pyrimidin-2-yl]-(4-methylsulfanyl-phenyl)-amine], for which the IC50 on BCR-NTRK2 BaF3 cells is less than 100 nM; on c-Kit kinase, less than 10 nM; on BCR-FMS BaF3 cells, less than 10 nM.
Turning to `Cc1cnc2[nH]cc(Cc3cnc(Nc4ccc(S(C)(=O)=O)cc4)nc3)c2c1` [Compound P-3034, (4-Methanesulfonyl-phenyl)-[5-(5-methyl-1H-pyrrolo[2,3-b]pyridin-3-ylmethyl)-pyrimidin-2-yl]-amine], the figures for the IC50 on BCR-NTRK2 BaF3 cells, at c-Kit kinase and at BCR-FMS BaF3 cells were less than 1000 nM, less than 100 nM and less than 10 nM, respectively.
On the same counts, the results for `CCn1ccc(Nc2ncc(Cc3c[nH]c4ncc(C)cc34)cn2)n1` [Compound P-3035, (1-Ethyl-1H-pyrazol-3-yl)-[5-(5-methyl-1H-pyrrolo[2,3-b]pyridin-3-ylmethyl)-pyrimidin-2-yl]-amine] are less than 1000 nM, less than 100 nM and less than 100 nM.
As for `CCn1cc(Nc2ncc(Cc3c[nH]c4ncc(C)cc34)cn2)cn1` [Compound P-3036, (1-Ethyl-1H-pyrazol-4-yl)-[5-(5-methyl-1H-pyrrolo[2,3-b]pyridin-3-ylmethyl)-pyrimidin-2-yl]-amine], the figures for the IC50 on BCR-NTRK2 BaF3 cells, at c-Kit kinase and on BCR-FMS BaF3 cells were less than 1000 nM, less than 100 nM and less than 10 nM, respectively.
For the molecule `Cc1cnc2[nH]cc(Cc3cnc(Nc4cc(C(F)(F)F)n[nH]4)nc3)c2c1` [Compound P-3037, [5-(5-Methyl-1H-pyrrolo[2,3-b]pyridin-3-ylmethyl)-pyrimidin-2-yl]-(5-trifluoromethyl-2H-pyrazol-3-yl)-amine], the IC50 on BCR-NTRK2 BaF3 cells was more than 10000 nM; on c-Kit kinase, less than 1000 nM; at BCR-FMS BaF3 cells it was more than 1000 nM.
As for `Cc1cnc2[nH]cc(Cc3cnc(Nc4cc(OC(C)C)n[nH]4)nc3)c2c1` [Compound P-3038, (5-Isopropoxy-2H-pyrazol-3-yl)-[5-(5-methyl-1H-pyrrolo[2,3-b]pyridin-3-ylmethyl)-pyrimidin-2-yl]-amine], the IC50 on BCR-NTRK2 BaF3 cells was more than 1000 nM; on c-Kit kinase, less than 1000 nM; on BCR-FMS BaF3 cells it was less than 1000 nM.
With `CCOc1ccc(Nc2ccc(Cc3c[nH]c4ncc(C)cc34)c(F)n2)cn1` [Compound P-3039, (6-ethoxy-pyridin-3-yl)-[6-fluoro-5-(5-methyl-1H-pyrrolo[2,3-b]pyridin-3-ylmethyl)-pyridin-2-yl]-amine], the IC50 at BCR-NTRK2 BaF3 cells was less than 1000 nM; at c-Kit kinase, less than 100 nM; at BCR-FMS BaF3 cells, less than 10 nM.
Regarding `COc1ccc(Nc2ccc(C(=O)c3c[nH]c4ncc(C)cc34)c(F)n2)cn1` [Compound P-3040, [2-Fluoro-6-(6-methoxy-pyridin-3-ylamino)-pyridin-3-yl]-(5-methyl-1H-pyrrolo[2,3-b]pyridin-3-yl)-methanone], the IC50 is less than 10 nM at BCR-NTRK2 BaF3 cells, more than 1000 nM at c-Kit kinase and less than 100 nM at BCR-FMS BaF3 cells.
As for `Cc1cnc2[nH]cc(Cc3ccc(Nc4ccc(C)nc4)nc3F)c2c1` [Compound P-3041, [6-Fluoro-5-(5-methyl-1H-pyrrolo[2,3-b]pyridin-3-ylmethyl)-pyridin-2-yl]-(6-methyl-pyridin-3-yl)-amine], the IC50 was less than 1000 nM at BCR-NTRK2 BaF3 cells, less than 1000 nM at c-Kit kinase and less than 10 nM on BCR-FMS BaF3 cells.
As for `Cc1ccc(Nc2ccc(Cc3c[nH]c4ncc(Cl)cc34)c(F)n2)cn1` [Compound P-3042, [5-(5-Chloro-1H-pyrrolo[2,3-b]pyridin-3-ylmethyl)-6-fluoro-pyridin-2-yl]-(6-methyl-pyridin-3-yl)-amine], the IC50 on BCR-NTRK2 BaF3 cells, on c-Kit kinase and at BCR-FMS BaF3 cells was less than 100 nM each time.
As to `Cc1cnc2[nH]cc(C(=O)c3ccc(Nc4ccc(C)nc4)nc3F)c2c1` [Compound P-3043, [2-Fluoro-6-(6-methyl-pyridin-3-ylamino)-pyridin-3-yl]-(5-methyl-1H-pyrrolo[2,3-b]pyridin-3-yl)-methanone], the IC50 is less than 100 nM on BCR-NTRK2 BaF3 cells, less than 1000 nM on c-Kit kinase and less than 100 nM on BCR-FMS BaF3 cells.
For the molecule `Cc1ccc(Nc2ccc(C(=O)c3c[nH]c4ncc(Cl)cc34)c(F)n2)cn1` [Compound P-3044, (5-Chloro-1H-pyrrolo[2,3-b]pyridin-3-yl)-[2-fluoro-6-(6-methyl-pyridin-3-ylamino)-pyridin-3-yl]-methanone], the IC50 on BCR-NTRK2 BaF3 cells was less than 100 nM; at c-Kit kinase, less than 1000 nM; at BCR-FMS BaF3 cells, less than 100 nM.
In the case of `CCOc1ccc(Nc2ccc(C(=O)c3c[nH]c4ncc(C)cc34)c(F)n2)cn1` [Compound P-3045, [6-(6-ethoxy-pyridin-3-ylamino)-2-fluoro-pyridin-3-yl]-(5-methyl-1H-pyrrolo[2,3-b]pyridin-3-yl)-methanone], the values for the IC50 at BCR-NTRK2 BaF3 cells, at c-Kit kinase and on BCR-FMS BaF3 cells were less than 10 nM, less than 1000 nM and less than 100 nM, respectively.
